According to article PMC4200852, “Metabolism of Cryptic Peptides Derived from Neuropeptide FF Precursors: The Involvement of Insulin-Degrading Enzyme” (International Journal of Molecular Sciences, 2014):
“Also recorded” adds a separate entry of the source. Ends that are not written are not given here.

Assays:
IDE [1] = conditions: statement without data or reference; cited from earlier work
[2] = test system: IDE, His-Tag, rat, recombinant; test: Proteolysis by insulin-degrading enzyme (IDE) in vitro, ESI-MS; format: in vitro ADME; conditions: 37 °C; for stability without IDE: no IDE
From the text: Other peaks assigned to the same fragments with the addition of Na^+ and K^+ are not labelled for simplicity.
IDE, His-Tag, rat, recombinant, from Spodoptera frugiperda, was purchased from Calbiochem (Milan, Italy), and its activity was verified by carrying out enzymatic digestion of insulin solutions according to the experimental procedure previously reported. Methanol (MeOH), formic acid (FA), Tris–HCl buffer, phosphate buffered saline (PBS) buffer and all chemicals used were purchased from Sigma–Aldrich. ZIPTIP C18 was purchased from Millipore (Milan, Italy). IDE enzymatic assays were carried out by incubating the enzyme solution (0.4 μM) at 37 °C with the peptide solution at the indicated concentration. After purification with ZIPTIP C18, 3 μL of the resulting solution were mixed with 50 μL of water and 50 μL of MeOH and injected into the mass spectrometer at 5 μL/min. ESI-MS experiments were performed by using a Finnigan LCQ DECA XP PLUS ion trap spectrometer operating in the positive ion mode and equipped with an orthogonal ESI source (Thermo Electron Corporation, Madison, WI, USA). Sample solutions were injected into the ion source using nitrogen as the drying gas. The mass spectrometer operated with a capillary voltage of 46 V and capillary a temperature of 250 °C, while the spray voltage was 4.3 kV. MS/MS data were interpreted by using the “Molecular Weight Calculator” software by Matthew Monroe freely available on the web.

[3] = NPNA metabolism by enzyme fractions separated from rat brain cortex homogenate, ESI-MS; format: in vitro ADME, male Wistar rats; conditions: for peptide fragment (sequence) formed: 120 min
Description: Brain cortices were rapidly removed from the male Wistar rats (150–200 g) and frozen immediately on dry ice. Tissues were kept at −80 °C until assayed. Brain was homogenized in an ice-cold 20 mM Tris–HCl buffer, pH 7.5, and diluted 1:6. The obtained homogenate was centrifuged twice at 14,000× g for 10 min at 4 °C.
Enzymes present in the rat brain homogenate were separated on the ion-exchange column Econo-Pac High Q (resin volume: 5 mL; Bio-Rad, Berkeley, CA, USA). Gradient separation was performed by the HPLC system Prominence LC-20 AD with a Photodiode Array Detector SPD-M20A (Shimadzu, Tokyo, Japan). The sample volume loaded on the column was 1 mL. The mobile phase consisted of 20 mM Tris–HCl buffer, pH 7.5, and a gradient of NaCl from 0 to 500 mM in 60 min was used. The total flow rate was 1 mL/min. One-point-five-milliliter fractions were collected during the separation and stored in −80 °C prior to further experiments.
Enzyme assays were performed in 0.5-mL Eppendorf tubes. Each homogenized brain fraction was diluted 1:5 with 20 mM Tris–HCl buffer, pH 7.5, and the reaction was initiated by the addition of 5 μg of NPNA and continued by mixing at 37 °C for 120 min (or for 300 min for preparing time course metabolic process). Five-microliter aliquots were taken from the incubation mixture, acidified by 30% MeOH with 0.1% FA and analyzed by ESI-MS (Bruker Esquire 3000) equipped with an autosampler (Famos, Thermo Scientific, earlier LC-Packings, Bremen, Germany). MS/MS analysis was performed to confirm the sequence of the released fragments. Quantitation of the enzyme activity was performed by integration of the peak area of formed products on the mass chromatogram. The samples were incubated with and without amastatin, an aminopeptidase inhibitor.

IDE [4] = target: T1, IDE (Rattus norvegicus, UniProt P35559); test: Surface Plasmon Resonance (SPR) OneStep binding to immobilized IDE; conditions: comparison among the peptides tested
T1 construct: His-Tag; purchased Calbiochem (Milan, Italy); host or cells: Spodoptera frugiperda
T1 sequence (P35559 1-1019): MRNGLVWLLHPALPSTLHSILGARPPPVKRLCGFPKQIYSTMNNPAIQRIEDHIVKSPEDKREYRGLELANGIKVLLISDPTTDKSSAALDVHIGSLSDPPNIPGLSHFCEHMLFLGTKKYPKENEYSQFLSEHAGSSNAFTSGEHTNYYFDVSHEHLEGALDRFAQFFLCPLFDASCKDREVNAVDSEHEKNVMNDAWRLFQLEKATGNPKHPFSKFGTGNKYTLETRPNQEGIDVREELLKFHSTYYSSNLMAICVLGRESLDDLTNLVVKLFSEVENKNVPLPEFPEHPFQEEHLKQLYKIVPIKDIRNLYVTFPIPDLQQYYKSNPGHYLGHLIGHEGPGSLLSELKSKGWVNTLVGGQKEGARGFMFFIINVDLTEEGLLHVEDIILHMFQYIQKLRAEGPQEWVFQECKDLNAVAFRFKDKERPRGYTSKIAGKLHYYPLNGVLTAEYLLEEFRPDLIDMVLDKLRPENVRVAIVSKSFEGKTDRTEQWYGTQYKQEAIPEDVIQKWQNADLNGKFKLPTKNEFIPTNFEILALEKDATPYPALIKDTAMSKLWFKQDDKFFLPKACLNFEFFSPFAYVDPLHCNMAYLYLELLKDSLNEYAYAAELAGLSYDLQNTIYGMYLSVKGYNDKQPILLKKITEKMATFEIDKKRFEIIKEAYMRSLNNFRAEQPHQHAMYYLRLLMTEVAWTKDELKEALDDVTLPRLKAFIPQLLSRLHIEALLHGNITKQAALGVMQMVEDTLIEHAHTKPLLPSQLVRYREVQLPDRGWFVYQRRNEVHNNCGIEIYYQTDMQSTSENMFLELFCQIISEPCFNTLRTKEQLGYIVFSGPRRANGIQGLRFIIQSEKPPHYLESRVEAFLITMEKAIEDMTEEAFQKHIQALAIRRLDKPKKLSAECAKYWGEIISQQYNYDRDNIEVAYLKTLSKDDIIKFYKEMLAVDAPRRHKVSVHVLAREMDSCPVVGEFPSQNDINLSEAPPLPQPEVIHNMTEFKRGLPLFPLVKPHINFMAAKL

[5] = NPPW 1–25 degradation in rat brain homogenate, with and without amastatin, ESI-MS; format: in vitro ADME; conditions: NPPW 1–25, rat brain homogenate
Description: We then tested the degradation of NPPW 1–25 peptide after incubation with rat brain homogenate, with and without the addition of amastatin. The latter was added to exclude the activity of aminopeptidases that are abundant in CNS. Such activity is responsible, among others, for the inactivation of opioid peptides, by truncation of the N-terminal Tyr, thus preventing binding to opioid receptors. […] In Table 2, the assignment of the peptide fragments detected is reported, while in Figure 4, a quantitative detection of their amounts at different incubation times is also shown. […] A further proof of this thesis could be obtained by applying selective IDE inhibitors that could become more easily available in the near future.
Brain cortices were rapidly removed from the male Wistar rats (150–200 g) and frozen immediately on dry ice. Tissues were kept at −80 °C until assayed. Brain was homogenized in an ice-cold 20 mM Tris–HCl buffer, pH 7.5, and diluted 1:6. […]
Enzyme assays were performed in 0.5-mL Eppendorf tubes. […] Five-microliter aliquots were taken from the incubation mixture, acidified by 30% MeOH with 0.1% FA and analyzed by ESI-MS (Bruker Esquire 3000) equipped with an autosampler (Famos, Thermo Scientific, earlier LC-Packings, Bremen, Germany). […] Quantitation of the enzyme activity was performed by integration of the peak area of formed products on the mass chromatogram. […]

[6] = target: T2, Insulin-degrading enzyme (IDE), His-Tag, rat, recombinant (rat, UniProt P35559 1-1019); test: SPR; SensiQ Pioneer, OneStep approach; IDE immobilised by amine coupling on a COOH5 chip; peptides in solution (initial concentrations NPSA 74 uM, NPNA 74 uM, NPPW 150 uM); 0.01 M HEPES, 0.15 M NaCl, pH 7.4; fitted with Qdat, one binding site model for NPNA, two binding site model for NPSA and NPPW; conditions: both partners purified
T2 construct: Insulin-degrading enzyme, rat, recombinant with His-Tag; Bought protein; immobilised by amine coupling for SPR; source: bought: Calbiochem (recombinant, from Spodoptera frugiperda)
T2 sequence (looked up): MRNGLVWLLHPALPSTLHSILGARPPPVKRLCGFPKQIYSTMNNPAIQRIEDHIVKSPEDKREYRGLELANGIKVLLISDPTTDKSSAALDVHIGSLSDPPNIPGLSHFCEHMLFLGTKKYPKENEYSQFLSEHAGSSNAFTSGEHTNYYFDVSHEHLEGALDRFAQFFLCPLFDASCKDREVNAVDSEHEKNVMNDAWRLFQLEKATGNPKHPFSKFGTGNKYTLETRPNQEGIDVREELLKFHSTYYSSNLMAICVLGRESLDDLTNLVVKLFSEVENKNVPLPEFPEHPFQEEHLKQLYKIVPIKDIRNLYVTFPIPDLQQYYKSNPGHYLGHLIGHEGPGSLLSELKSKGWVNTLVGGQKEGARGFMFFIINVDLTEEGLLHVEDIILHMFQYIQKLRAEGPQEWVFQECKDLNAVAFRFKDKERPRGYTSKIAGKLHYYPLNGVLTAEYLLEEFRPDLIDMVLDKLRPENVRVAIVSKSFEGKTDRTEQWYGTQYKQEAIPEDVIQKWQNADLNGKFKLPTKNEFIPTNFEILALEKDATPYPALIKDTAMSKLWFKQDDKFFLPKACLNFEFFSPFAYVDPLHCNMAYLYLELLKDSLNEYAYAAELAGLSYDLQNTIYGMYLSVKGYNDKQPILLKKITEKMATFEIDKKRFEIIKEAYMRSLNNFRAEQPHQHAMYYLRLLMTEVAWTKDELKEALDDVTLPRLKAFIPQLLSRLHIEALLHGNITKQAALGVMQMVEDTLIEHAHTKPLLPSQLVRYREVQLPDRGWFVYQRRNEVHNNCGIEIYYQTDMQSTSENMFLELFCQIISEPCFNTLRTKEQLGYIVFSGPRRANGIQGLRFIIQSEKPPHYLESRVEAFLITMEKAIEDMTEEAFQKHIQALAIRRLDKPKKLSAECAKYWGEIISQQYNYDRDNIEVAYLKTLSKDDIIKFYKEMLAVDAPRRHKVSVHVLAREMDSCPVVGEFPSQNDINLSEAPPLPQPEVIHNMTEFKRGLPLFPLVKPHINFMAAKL

With `CC(C)C[C@@H](N)[C@H](O)C(=O)N[C@H](C(=O)N[C@H](C(=O)N[C@@H](CC(=O)O)C(=O)O)C(C)C)C(C)C` [amastatin, reference compound] as the molecule, how does the “inhibition of IDE” value (IDE [1]) read?
The value was “not inhibited by amastatin”.

Which results are given for NAWGPWSKEQLSPQA [NPNA, NAWGPWSKEQLSPQA]?
degradation by IDE ([2]; NPNA incubated with IDE, up to 24 h, ESI-MS): not cleaved by IDE; also recorded: IDE is not able to degrade NPNA; also recorded: not degraded by IDE; also recorded: does not produce any NPNA fragments at all incubation times investigated; time of highest amount of main product 1–11 ([3]; Fraction 23, 37 °C, pH 7.5): 4 h; peptide fragment (sequence) formed ([3]; Fraction 23 from Econo-Pac High Q, 5 μg NPNA, 20 mM Tris–HCl pH 7.5, 37 °C, ESI-MS): SPQA; main product, time course ([3]; Fraction 26, 37 °C, pH 7.5): SKEQL; peptide fragment (sequence) formed ([3]; Fraction 26 from Econo-Pac High Q, 5 μg NPNA, 20 mM Tris–HCl pH 7.5, 37 °C, ESI-MS): NAW and GPW and SKEQL and SPQA; cleavage position by brain cortex proteases ([3]; rat brain cortex fractions, 20 mM Tris–HCl pH 7.5, 37 °C, ESI-MS): mainly at the carboxyl side of the tryptophan and leucine; also recorded: mainly at the carboxyl side of tryptophan and leucine; time of highest product intensity ([3]; time course, rat brain cortex fractions, 5 μg NPNA, 20 mM Tris–HCl pH 7.5, 37 °C, ESI-MS): 4 h

With PQRFGRNAWGPWSKEQLSPQAREFW [NPPW 1–25] as the molecule, how does the “cleavage sites by IDE” value ([2]; 50 μM NPPW 1–25, 8 nM IDE, PBS, 8 h, ESI-MS) read?
Its value is “Gly5–Arg6, Ala8–Trp9, Gly10–Pro11 and Gln20–Ala21”.

And the “fragments produced by IDE” value ([2]; 50 μM NPPW 1–25, 8 nM IDE, PBS, 8 h, ESI-MS, MS/MS)?
The value was “WGPWSKEQLSPQ; also recorded: PQRFGRNAWGPWSKEQLSPQ at high abundance”.

And the “major cleavage site by IDE” value ([2]; 50 μM NPPW 1–25, 8 nM IDE, PBS, ESI-MS)?
The value was “Gln20–Ala21”.

What about the “stability without IDE” value ([2]; 50 μM NPPW 1–25, PBS, 8 h, ESI-MS) of the same molecule?
Its value is “only the full-length peptide is detected”.

And the “fragment generated only at longer incubation times with IDE” value ([2]; NPPW 1–25, more than 2 h, data not shown)?
The value was “PWSKEQLSPQAREFW”.

And the “most abundant fragment produced by IDE” value ([2]; NPPW 1–25 with IDE, ESI-MS)?
The value was “PQRFGRNAWGPWSKEQLSPQ”.

What about the “relative KD for both binding sites” value (IDE [4]) of the same molecule?
The value was “lowest KD values for both binding sites”.

And the major cleavage site [5]?
The major cleavage site was “Gln20–Ala21”.

What about the “most abundant peptide fragment” value [5] of the same molecule?
The value was “NPPW 1–20”.

Which “main cleavage site by IDE” value ([2]; 50 μM NPSA, 8 nM IDE, PBS, 2 h, ESI-MS) does the source give for SAWGSWSKEQLNPQA [NPSA, SAWGSWSKEQLNPQA] here?
Its value is “between Trp6 and Ser7”.

What about the “fragments produced by IDE” value ([2]; 50 μM NPSA, 8 nM IDE, PBS, 2 h, ESI-MS, confirmed by MS/MS) of the same molecule?
Its value is “SAWGSW; also recorded: SKEQLNPQA”.

And the “main cleavage site by IDE” value ([2]; 50 μM NPSA, 8 nM IDE, PBS, 2 h, ESI-MS, listed as NPSA 1–15)?
The value was “Trp6–Ser7”.

And the “stability without IDE” value ([2]; 50 μM NPSA, PBS, 2 h, ESI-MS)?
Its value is “only the full-length peptide is detected”.

And the “time to complete degradation by IDE” value ([2]; (IDE) = 1/6000 (NPSA), disappearance of NPSA molecular peak, 50 μM NPSA, PBS, ESI-MS)?
The value was “two”.

B1: NPNA (NAWGPWSKEQLSPQA {1-15}) (peptide)
peptide: NAWGPWSKEQLSPQA
notes: NPNA, residues 85-99 of rat pro-NPFFA (neuropeptide FF precursor); also called NPNA 1-15; source: synthetic peptide (Fmoc solid phase synthesis, purified by HPLC)
With B1 as the molecule, how does the Kd [6] read?
The Kd was 3.98 mM.
